In assay [1] the target is T1, c-Met (cytoplasmic domain) (Homo sapiens, UniProt P08581).
T1 construct: Reactions were initiated with 30 ng/mL c-Met (cytoplasmic domain, Invitrogen Corporation #PV3143); purchased Invitrogen Corporation PV3143
Briefly: c-Met Kinase Assay (ELISA/TRF, PLC-γ substrate). Type of assay: biochemical. The conditions noted are these: 3 μM ATP (Km level); read-out: c-Met Kinase Inhibition (IC50). The procedure, abridged:
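c-Met cytoplasmic domain (30 ng/mL) phosphorylates plate-coated GST–PLC-γ for 15 min at 37 °C. Phosphotyrosine detected with Eu-labeled PT66 antibody by time-resolved fluorescence. IC50 from variable-slope sigmoidal fit of % inhibition vs log concentration.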
A general note: In an ELISA, binding on a coated surface is turned into a signal by an enzyme label.

Assay [2] has as its target baculovirus-expressed ALK (Homo sapiens, UniProt Q9UM73). Briefly: ALK Kinase Assay (ELISA/TRF, PLC-γ substrate). Further: 1 µM ATP (Km level). Type of assay: biochemical. Particulars: read-out: ALK Kinase Inhibition (IC50). The gist of the method:
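GST-PLC-γ coat 10 μg/mL/TBS; 30 ng/ml ALK, 37° C, 15 min; Eu-PT66 anti-pTyr 1 h 37° C, enhancement, TRF. IC50: % inhib vs log10[cpd], variable-slope sigmoid.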

T1 sequence (P08581 956-1390 limits assumed): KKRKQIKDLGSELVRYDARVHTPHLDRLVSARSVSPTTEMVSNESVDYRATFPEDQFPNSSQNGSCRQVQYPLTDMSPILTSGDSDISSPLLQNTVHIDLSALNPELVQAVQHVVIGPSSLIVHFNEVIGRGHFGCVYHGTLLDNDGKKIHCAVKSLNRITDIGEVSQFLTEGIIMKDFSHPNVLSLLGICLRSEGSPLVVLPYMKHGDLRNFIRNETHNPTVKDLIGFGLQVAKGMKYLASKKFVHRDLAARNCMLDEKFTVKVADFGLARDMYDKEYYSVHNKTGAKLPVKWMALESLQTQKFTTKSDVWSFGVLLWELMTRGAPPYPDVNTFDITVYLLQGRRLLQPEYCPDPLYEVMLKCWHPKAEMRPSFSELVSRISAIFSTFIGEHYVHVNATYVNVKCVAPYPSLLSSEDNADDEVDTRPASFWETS
Chain of baculovirus-expressed ALK (Q9UM73 19-1620): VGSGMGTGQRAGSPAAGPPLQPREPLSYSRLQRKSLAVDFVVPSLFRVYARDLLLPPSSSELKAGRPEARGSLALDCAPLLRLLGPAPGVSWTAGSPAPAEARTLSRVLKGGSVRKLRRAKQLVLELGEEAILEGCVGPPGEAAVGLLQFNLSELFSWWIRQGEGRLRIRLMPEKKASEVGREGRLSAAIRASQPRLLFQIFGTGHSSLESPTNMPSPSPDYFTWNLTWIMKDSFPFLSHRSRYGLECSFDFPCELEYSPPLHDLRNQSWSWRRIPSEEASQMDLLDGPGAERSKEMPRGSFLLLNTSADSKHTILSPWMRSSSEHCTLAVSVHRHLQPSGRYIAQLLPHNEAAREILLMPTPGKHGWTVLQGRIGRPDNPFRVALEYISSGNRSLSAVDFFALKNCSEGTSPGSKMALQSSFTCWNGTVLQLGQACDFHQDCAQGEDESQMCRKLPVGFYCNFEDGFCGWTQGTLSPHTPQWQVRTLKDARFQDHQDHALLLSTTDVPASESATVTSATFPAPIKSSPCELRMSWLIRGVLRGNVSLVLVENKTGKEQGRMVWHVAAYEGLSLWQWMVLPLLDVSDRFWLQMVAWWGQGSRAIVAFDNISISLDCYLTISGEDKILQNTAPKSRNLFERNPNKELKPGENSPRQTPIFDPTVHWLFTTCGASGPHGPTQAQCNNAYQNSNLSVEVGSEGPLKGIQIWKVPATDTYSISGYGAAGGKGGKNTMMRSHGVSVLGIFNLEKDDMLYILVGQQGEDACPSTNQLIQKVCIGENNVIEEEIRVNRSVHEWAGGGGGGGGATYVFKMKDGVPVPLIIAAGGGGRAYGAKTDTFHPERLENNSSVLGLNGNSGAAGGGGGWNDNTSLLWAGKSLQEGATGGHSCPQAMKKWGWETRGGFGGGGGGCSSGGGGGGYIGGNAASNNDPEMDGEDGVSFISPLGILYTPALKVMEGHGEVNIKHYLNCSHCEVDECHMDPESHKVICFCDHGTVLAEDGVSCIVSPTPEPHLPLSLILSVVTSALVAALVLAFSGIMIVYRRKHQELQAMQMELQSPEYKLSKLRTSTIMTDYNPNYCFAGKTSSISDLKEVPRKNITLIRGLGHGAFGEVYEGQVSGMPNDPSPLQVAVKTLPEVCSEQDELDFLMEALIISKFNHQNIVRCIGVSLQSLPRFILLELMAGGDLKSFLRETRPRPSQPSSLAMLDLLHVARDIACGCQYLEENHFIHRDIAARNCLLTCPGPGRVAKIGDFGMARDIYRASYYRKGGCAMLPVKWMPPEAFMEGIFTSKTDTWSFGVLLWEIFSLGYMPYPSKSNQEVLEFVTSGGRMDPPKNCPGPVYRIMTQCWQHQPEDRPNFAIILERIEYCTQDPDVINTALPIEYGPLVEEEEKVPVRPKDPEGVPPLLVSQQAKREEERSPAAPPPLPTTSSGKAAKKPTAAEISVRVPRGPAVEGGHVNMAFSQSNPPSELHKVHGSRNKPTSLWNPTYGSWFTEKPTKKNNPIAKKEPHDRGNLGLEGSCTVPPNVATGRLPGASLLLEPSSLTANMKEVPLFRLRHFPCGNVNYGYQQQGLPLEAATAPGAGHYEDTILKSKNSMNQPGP

As to `O=C(c1cnc2c(c1)N(Cc1cc(Cl)ccc1Cl)CCN2)N1CCC(c2noc3cc(F)ccc23)CC1` [Example 221, [1-(2,5-Dichlorobenzyl)-1,2,3,4-tetrahydropyrido[2,3-b]pyrazin-7-yl]-[4-(6-fluorobenzo[d]isoxazol-3-yl)piperidin-1-yl]methanone], the figures for the IC50 in assay [1] and in assay [2] were more than 100 µM and 10 to 100 µM, respectively.
Taken in the same sequence, the figures for `O=C(c1ccccc1)N1CCNc2ncc(-c3ccc(NS(=O)(=O)CCN4CCCC4)cc3)cc21` [Example 46, 2-Pyrrolidin-1-yl-ethanesulfonic acid[4-(1-benzoyl-1,2,3,4-tetrahydropyrido[2,3-b]pyrazin-7-yl)phenyl]amide] were 10 to 100 µM and 10 to 100 µM.
In the case of `CN1CCN(C(=O)c2ccc(-c3cnc4c(c3)N(Cc3c(F)ccc(F)c3Cl)C(=O)CN4)cc2)CC1` [Example 7, 1-(2-Chloro-3,6-difluorobenzyl)-7-[4-(4-methylpiperazine-1-carbonyl)phenyl]-3,4-dihydro-1H-pyrido[2,3-b]pyrazin-2-one], the IC50 in assay [1] was 10 to 100 µM; in assay [2], 1 to 10 µM.
Take `CCOC(=O)c1ccc(-c2cnc3c(c2)N(Cc2ccccc2)C(=O)CN3)cn1` [Example 29, 5-(1-Benzyl-2-oxo-1,2,3,4-tetrahydropyrido[2,3-b]pyrazin-7-yl)pyridine-2-carboxylic acid ethyl ester]: the half-inhibitory concentration (IC50) in assay [1] was in the range of 10 to 100 µM; in assay [2], 0.1 to 1 µM.
For `CN1CCN(C(=O)c2ccc(-c3cnc4c(c3)C(O)CCN4)cc2)CC1` (stereo not shown) [Example 270, [4-(5-Hydroxy-5,6,7,8-tetrahydro-[1,8]naphthyridin-3-yl)phenyl]-(4-methyl-piperazin-1-yl)methanone], the IC50 in assay [1] and in assay [2] was more than 100 µM throughout.
Consider `O=C(NCc1ccc(-c2ccccc2)cc1)c1cnc2c(c1)N(Cc1cc(Cl)ccc1Cl)CCN2` [Example 249, 1-(2,5-Dichlorobenzyl)-1,2,3,4-tetrahydropyrido[2,3-b]pyrazine-7-carboxylic acid (biphenyl-4-ylmethyl)amide], for which the figures for the 50% inhibitory concentration (IC50) in assay [1] and in assay [2] were more than 100 µM and 10 to 100 µM, respectively.
In the case of `CN1CCN(C(=O)c2cnc3c(c2)N(Cc2cc(F)ccc2F)CCN3)CC1` [Example 79, [1-(2,5-Difluorobenzyl)-1,2,3,4-tetrahydropyrido[2,3-b]pyrazin-7-yl]-(4-methylpiperazin-1-yl)methanone], the results for the IC50 in assay [1] and in assay [2] were more than 100 µM and 10 to 100 µM, respectively.
Regarding `O=C(c1cnc2c(c1)N(Cc1cc(Cl)ccc1Cl)CCN2)N1CCCC1c1cccnc1` (stereo not shown) [Example 264, [1-(2,5-Dichlorobenzyl)-1,2,3,4-tetrahydropyrido[2,3-b]pyrazin-7-yl]-(2-pyridin-3-yl-pyrrolidin-1-yl)methanone], the figures for the IC50 in assay [1] and in assay [2] were more than 100 µM and 1 to 10 µM, respectively.
Turning to `CN1CCN(C(=O)c2ccc(-c3cnc4c(c3)C(Oc3cccc(Cl)c3)CCN4)cc2)CC1` (stereo not shown) [Example 274, {4-[5-(3-Chlorophenoxy)-5,6,7,8-tetrahydro-[1,8]naphthyridin-3-yl]-phenyl}-(4-methylpiperazin-1-yl)methanone], the IC50 in assay [1] and in assay [2] was 1 to 10 µM each time.
On to `O=C(NCc1cccnc1)c1cnc2c(c1)N(Cc1cc(Cl)ccc1Cl)CCN2` [Example 235, 1-(2,5-Dichlorobenzyl)-1,2,3,4-tetrahydropyrido[2,3-b]pyrazine-7-carboxylic acid (pyridin-3-ylmethyl)amide], for which the results for the IC50 in assay [1] and in assay [2] were 10 to 100 µM and 1 to 10 µM, respectively.
With `O=C(c1ccc(-c2cnc3c(c2)N(C(=O)Cc2cc(F)ccc2F)CCN3)cc1)N1CCC(N2CCCC2)CC1` [Example 114, 2-(2,5-Difluorophenyl)-1-{7-[4-(4-(pyrrolidin-1-yl)piperidine-1-carbonyl)phenyl]-3,4-dihydro-2H-pyrido[2,3-b]pyrazin-1-yl}ethanone], the results for the half-inhibitory concentration (IC50) in assay [1] and in assay [2] were 10 to 100 µM and 1 to 10 µM, respectively.

As usually defined, the IC50 is the concentration at which inhibition is half-maximal.
